Measured values taken from patent US20090081197A1 (Palatin Technologies, Inc., priority 2007, published 2009).
Where two headings read alike, the source gives them in different places. Positions of bridges follow the written chain, without caps; N, C: chain ends. Non-standard residues stand in square brackets, D forms with d. Residues, ends and D or L forms follow the SMILES beside them. *: point of attachment. Acetyl(2-naphthyl) = O=C(Cc1ccc2ccccc2c1)*; dPhe(4-Cl) = N[C@H](Cc1ccc(Cl)cc1)C(=O)O; 1Nal = N[C@@H](Cc1cccc2ccccc12)C(=O)O; 2Nal = N[C@@H](Cc1ccc2ccccc2c1)C(=O)O; d2Nal = N[C@H](Cc1ccc2ccccc2c1)C(=O)O; Ac6c = NC1(C(=O)O)CCCCC1; Heptanoyl = CCCCCCC(=O)*; Nle = CCCC[C@H](N)C(=O)O; Bn = c1ccc(C*)cc1

How the values were obtained:
MC4-R [1] = target: T1, MC4-R (Homo sapiens, UniProt P32245); assay: cAMP agonist stimulation, high receptor density system (10 ng/mL doxycycline); conditions: for Efficacy/Intrinsic Activity: 10 ng/mL doxycycline, high receptor density hMC4-R system, NDP-α-MSH maximal cAMP = 1.0
MC4-R [2] = target: T1, MC4-R; assay: cAMP functional activity assay in HEK-293 cells, normal system; assay type: cell-based; parameters: expressed in transfected cells; host or cells: HEK-293; conditions: for intrinsic activity at MC4-R in a normal system: NDP-α-MSH = 1.0
Method: General method for EC50 determination in functional activity assay. […] Data analysis and EC50 values were determined using nonlinear regression analysis with Prism Graph-Pad software.
Functional status. The agonist/antagonist status with respect to MC1-R, MC-3R, MC4-R and MC5-R of certain compounds of the invention was determined. Antagonistic activity was determined by measuring the inhibition of α-MSH-induced or NDP-α-MSH-induced cAMP levels following exposure to graded doses of compounds as in the preceding descriptions.
Assay for agonist. Evaluation of the molecules to elicit a functional response in HEK-293 cells expressing MC4-R was accomplished by measuring the accumulation of intracellular cAMP following treatment. Confluent HEK-293 cells expressing MC4-R receptors were detached by enzyme free cell suspension buffer. […] The cells were plated in a 96 well plates at a density of 0.5×10^5 cells per well and pre-incubated for 30 minutes. Test compounds (dissolved in dimethylsulfoxide (DMSO) at a concentration range of 0.05-5000 nM) were added in a total assay volume of 200 μL and cells were incubated for 1 hour at 37° C. The concentration of DMSO was always held at 1% in the assay mixture. NDP-α-MSH was used as the reference agonist. […] Data analysis and EC50 values were determined by using nonlinear regression analysis with Prism Graph-Pad software. […] Compounds with a response ratio of less than 0.1 (10%) were evaluated for antagonistic activity.

MC5-R = MC5-R (Homo sapiens, UniProt P33032); assay: Competitive inhibition assay using [I^125]-NDP-α-MSH, hMC5-R membranes; assay type: binding; parameters: expressed in transfected cells; conditions: for inhibition at 1 µM: read-out: Inhibition at 1 μM (NDP-α-MSH) In Normal System, MC5-R
Method: (§1) The ligand concentration used was 0.4 nM for MC3-R and MC5-R, 0.2 nM for MC4-R and 0.1 nM for B16-F10 (MC1-R) membranes. In certain experiments, hMC1-R was also employed.
(§2) The assay mixture was incubated for 90 minutes at room temperature, then filtered and the membranes washed three times with ice cold buffer. The filter was dried and counted in a gamma counter for remaining radioactivity bound to the membranes. […] Each assay was conducted in triplicate and the actual mean values are described, with results less than 0% reported as 0%.

MC3-R = MC3-R (Homo sapiens, UniProt P41968); assay: Competitive inhibition assay using [I^125]-NDP-α-MSH, hMC3-R membranes; assay type: binding; parameters: expressed in transfected cells; conditions: read-out: Inhibition at 1 μM (NDP-α-MSH) In Normal System, MC3-R
Method: as §1, §2

MC1-R = target: T2, MC1-R (Mus musculus, UniProt Q01727); assay: Competitive inhibition assay using [I^125]-NDP-α-MSH, B-16 mouse melanoma cell membranes; assay type: binding; conditions: read-out: Inhibition at 1 μM (NDP-α-MSH) In Normal System, MC1-R
T2 construct: B-16 mouse melanoma cells (containing MC1-R); endogenous in cells
Method: as §1, §2

MC4-R [3] = target: T1, MC4-R; assay: Competitive inhibition assay using [I^125]-NDP-α-MSH, hMC4-R membranes; assay type: binding; parameters: host or cells: TREx-293 (HEK-293 stably expressing Tet repressor); conditions: for inhibition at 1 µM: read-out: Inhibition at 1 μM (NDP-α-MSH) In Normal System, MC4-R; for Ki: read-out: Ki (nM) (NDP-α-MSH) In Normal System, MC4-R
Method: as §1, §2

MC4-R [4] = target: T1, MC4-R; assay: cAMP agonist stimulation, low receptor density system (0.1 ng/mL doxycycline); conditions: for Efficacy/Intrinsic Activity: 0.1 ng/mL doxycycline, low receptor density hMC4-R system, NDP-α-MSH maximal cAMP = 1.0
[5] = ICV food intake and body weight change; assay type: in vivo; conditions: rat, 1 nmol, 24 hours
Method: ICV food intake and body weight change. Change in food intake and body weight was evaluated for selected compounds. Rats with indwelling intracerebroventricular cannulas (ICV rats) were obtained from Hilltop Lab Animals, Inc. (Scottdale, Pa.). Animals were individually housed in conventional plexiglass hanging cages and maintained on a controlled 12 hour on/off light cycle. Water and powdered (LabDiet, 5P00 Prolab RMH 3000) or pelleted (Harlan Teklad 2018 18% Protein Rodent Diet) food was provided ad libitum. For 1 week before treatment, 24-hour food intake and body weight change was recorded to assess a baseline for the group during vehicle treatment. The rats were dosed ICV with vehicle or selected compounds (1-3 nmol). The changes in body weight and food intake for the 24 hour period after dosing were determined. The changes in body weight and food intake for the 48 hour and 72 hour periods after dosing were also measured to determine reversal of changes in body weight and food intake effects back to baseline levels.

[6] = Penile erection induction in male rats; assay type: in vivo; conditions: rat
Method: Penile erection induction. The ability of compounds to induce penile erection (PE) in male rats was evaluated with selected compounds. Male Sprague-Dawley rats weighing 200-250 g were kept on a 12 hour on/off light cycle with food and water ad libitum. All behavioral studies were performed between 10 A.M. and 5 P.M. Groups of 4-8 rats were treated with compounds at a variety of doses via intravenous (IV) or intracerebroventricular (ICV) routes. Immediately after treatment, rats were placed into individual polystyrene cages (27 cm long, 16 cm wide, and 25 cm high) for behavioral observation. […] Controls utilized carrier without the test compound. Mean PEs in control groups were 0.17 to 0.5 PEs/rat by IV administration in various experiments and between 1-2 PEs/rat by ICV administration in various experiments, and thus only PEs with statistically relevant increases over the mean PEs in control groups are reported as inducing PEs. A PE response in IV animals greater than the mean PEs in control groups but less than 1.0 PEs/rat, particularly with less than all animals responding, was treated as equivocal, and not necessarily distinguishable from vehicle control. In selected instances, compounds with equivocal results in the IV model were tested for penile response in an ICV model, and compounds without a statistically relevant increase over the mean PEs in ICV control groups were determined to not induce PEs.

[7] = normal system, 1 μM concentration where stated

T2 sequence (Q01727 whole entry): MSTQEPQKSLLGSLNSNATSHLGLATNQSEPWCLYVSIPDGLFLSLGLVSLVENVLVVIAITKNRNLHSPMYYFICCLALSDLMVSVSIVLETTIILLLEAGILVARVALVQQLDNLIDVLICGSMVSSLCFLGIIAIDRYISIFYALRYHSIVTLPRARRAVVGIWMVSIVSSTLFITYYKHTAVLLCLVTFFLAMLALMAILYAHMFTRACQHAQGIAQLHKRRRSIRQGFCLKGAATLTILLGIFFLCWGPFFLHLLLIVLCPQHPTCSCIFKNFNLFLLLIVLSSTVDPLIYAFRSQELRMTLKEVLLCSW
MC5-R, sequence (P33032 whole entry): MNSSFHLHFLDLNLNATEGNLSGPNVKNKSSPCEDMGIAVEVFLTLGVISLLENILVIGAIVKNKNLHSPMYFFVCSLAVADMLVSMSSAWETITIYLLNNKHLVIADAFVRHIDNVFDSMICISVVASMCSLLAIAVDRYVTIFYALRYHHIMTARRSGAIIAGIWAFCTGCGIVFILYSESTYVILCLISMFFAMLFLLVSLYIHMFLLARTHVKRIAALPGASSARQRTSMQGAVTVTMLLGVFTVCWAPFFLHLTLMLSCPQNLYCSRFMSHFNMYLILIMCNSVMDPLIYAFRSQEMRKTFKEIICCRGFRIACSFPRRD
MC3-R, sequence (P41968 whole entry): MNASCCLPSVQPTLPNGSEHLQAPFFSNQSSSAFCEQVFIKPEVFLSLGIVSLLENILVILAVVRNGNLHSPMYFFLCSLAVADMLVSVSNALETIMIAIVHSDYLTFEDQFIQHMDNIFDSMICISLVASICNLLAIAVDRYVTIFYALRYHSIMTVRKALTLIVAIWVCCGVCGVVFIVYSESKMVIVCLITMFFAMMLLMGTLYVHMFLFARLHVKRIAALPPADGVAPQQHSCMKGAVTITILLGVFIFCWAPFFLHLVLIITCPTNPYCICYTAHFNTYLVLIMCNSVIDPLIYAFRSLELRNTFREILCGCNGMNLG
T1 sequence (P32245 whole entry): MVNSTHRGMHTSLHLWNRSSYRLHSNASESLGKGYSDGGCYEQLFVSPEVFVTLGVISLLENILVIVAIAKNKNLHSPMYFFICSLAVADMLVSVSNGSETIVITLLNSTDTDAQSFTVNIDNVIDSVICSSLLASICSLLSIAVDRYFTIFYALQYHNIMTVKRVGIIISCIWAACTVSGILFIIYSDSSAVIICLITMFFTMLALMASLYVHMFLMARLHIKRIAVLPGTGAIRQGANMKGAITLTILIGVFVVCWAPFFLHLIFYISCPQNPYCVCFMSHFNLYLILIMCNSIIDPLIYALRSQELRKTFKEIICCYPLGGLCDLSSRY

Structure (SMILES)	EC50 (MC4-R [1])	inhibition at 1 µM (MC5-R; 1 μM test compound)	inhibition at 1 µM (MC3-R; 1 μM test compound)	inhibition at 1 µM (MC1-R; 1 μM test compound)	inhibition at 1 µM (MC4-R [3]; 1 μM test compound)	Ki (MC4-R [3])	EC50 (MC4-R [4])	also measured
C[C@H](NC(=O)[C@H](CCCNC(=N)N)NC(=O)[C@@H](Cc1ccc(Cl)cc1)NC(=O)[C@H](COCc1ccccc1)NC(=O)CCCCCCN)c1cccc2ccccc12 [Example 16, 7′-amino-heptanoyl-Ser(Bzl)-D-Phe(4-Cl)-Arg-S-(−)-1-(1-naphthyl)ethylamide]	180 nM	–	–	–	–	–	–	–
CNC(=O)[C@@H]1CCCCNC(=O)C[C@H](NC(C)=O)C(=O)N[C@@H](Cc2c[nH]c3ccccc23)C(=O)N[C@H](Cc2ccc3ccccc3c2)C(=O)N[C@@H](CCCNC(=N)N)C(=O)N[C@@H](Cc2ccc3ccccc3c2)C(=O)N1 [Example 35, Ac-cyclo(Asp-Trp-D-Nal 2-Arg-Nal 2-Lys)-NH—CH3] (Ac-DW[d2Nal]R[2Nal]K-NHMe; lactam 1-6)	–	–	–	–	–	–	–	functional status at MC4-R in cAMP assay (MC4-R [2]; at 1 nM dose): inactive; inhibition at 1 µM (MC5-R): 98%; inhibition at 1 µM (MC3-R): 99%; inhibition at 1 µM (MC1-R): 67%; inhibition at 1 µM (MC4-R [3]): 100%
CCCC[C@H](NC(C)=O)C(=O)N[C@H]1CC(=O)NCCCC[C@@H](C(=O)N(C)C)NC(=O)[C@H](Cc2cccc3ccccc23)NC(=O)[C@H](CCCNC(=N)N)NC(=O)[C@@H](Cc2ccccc2)NC(=O)[C@H](Cc2c[nH]c3ccccc23)NC1=O [Example 36, Ac-Nle-cyclo(-Asp-Trp-D-Phe-Arg-Nal 1-Lys)-N(CH3)2] (Ac-[Nle]DW[dF]R[1Nal]K-NMe2; lactam 2-7)	4 nM	92%	83%	71%	99%	38 nM	–	–
CCCC[C@H](NC(C)=O)C(=O)N[C@H]1CC(=O)NCCCC[C@@H](C(=O)NCC)NC(=O)[C@H](Cc2cccc3ccccc23)NC(=O)[C@H](CCCNC(=N)N)NC(=O)[C@@H](Cc2ccccc2)NC(=O)[C@H](Cc2c[nH]cn2)NC1=O [Example 39, Ac-Nle-cyclo(-Asp-His-D-Phe-Arg-Nal 1-Lys)-NH—CH2—CH3]	1.1 nM	93%	93%	100%	98%	2 nM	10 nM	–
CCNC(=O)[C@@H]1CCCCNC(=O)C[C@H](NC(C)=O)C(=O)N[C@@H](Cc2c[nH]cn2)C(=O)N[C@H](Cc2ccccc2)C(=O)N[C@@H](CCCNC(=N)N)C(=O)N[C@@H](Cc2c[nH]c3ccccc23)C(=O)N1 [Example 40, Ac-cyclo(-Asp-His-D-Phe-Arg-Trp-Lys)-NH—CH2—CH3]	0.5 nM	16%	65%	96%	96%	6 nM	3.1 nM	EC50 (MC4-R [2]; normal receptor density system): 3 nM; Ki (MC5-R; read-out: Ki (nM) (NDP-α-MSH) In Normal System, MC5-R): > 1000 nM
CCCCCCC(=O)N[C@H](C(=O)N[C@H](Cc1ccc(Cl)cc1)C(=O)N[C@@H](CCCNC(=N)N)C(=O)N[C@@H](Cc1c[nH]c2ccccc12)C(N)=O)[C@@H](C)OCc1ccccc1 [Example 23, Heptanoyl-Thr(Bzl)-D-Phe(4-Cl)-Arg-Trp-NH2] (Heptanoyl-T(Bn)[dPhe(4-Cl)]RW-NH2)	184 nM	–	–	–	–	–	–	intrinsic activity at MC4-R in a normal system (MC4-R [2]; normal receptor density system): 0.4; functional status at MC4-R in cAMP assay (MC4-R [2]; [7]): partial agonist (intrinsic activity between 0.1 (10%) and 0.7 (70%) is classified as a partial agonist); Efficacy/Intrinsic Activity (MC4-R [4]): None; decrease in body weight [5]: 1%; decrease in food intake [5]: 18%; Efficacy/Intrinsic Activity (MC4-R [1]): 0.75; Penile Erection IV ([6]; IV): No; penile erection response ([6]; IV, 1 μg/kg): no penile erection response
N=C(N)NCCC[C@H](NC(=O)[C@@H](Cc1ccc(Cl)cc1)NC(=O)C1(NC(=O)Cc2ccc3ccccc3c2)CCCCC1)C(=O)N[C@@H](Cc1c[nH]c2ccccc12)C(N)=O [Example 24, 2-naphthylacetyl-1-amino-1-cyclohexane-carbonyl-D-Phe(4-Cl)-Arg-Trp-NH2] ({Acetyl(2-naphthyl)}-[Ac6c][dPhe(4-Cl)]RW-NH2)	–	–	–	–	–	–	–	intrinsic activity at MC4-R in a normal system (MC4-R [2]; normal receptor density system): 0.2; functional status at MC4-R in cAMP assay (MC4-R [2]; [7]): partial agonist (intrinsic activity between 0.1 (10%) and 0.7 (70%) is classified as a partial agonist); Efficacy/Intrinsic Activity (MC4-R [4]): None; decrease in body weight [5]: 1%; decrease in food intake [5]: 21%; Efficacy/Intrinsic Activity (MC4-R [1]): None
CCCC[C@H](NC(C)=O)C(=O)N[C@H]1CC(=O)NCCCC[C@@H](C(=O)O)NC(=O)[C@H](Cc2c[nH]c3ccccc23)NC(=O)[C@H](CCCNC(=N)N)NC(=O)[C@@H](Cc2ccccc2)NC(=O)[C@H](Cc2c[nH]cn2)NC1=O [PT-141, cyclo 2,7[Ac-Nle-Asp-His-D-Phe-Arg-Trp-Lys]-OH, reference compound]	–	–	–	–	–	–	–	Penile Erection ICV ([6]; ICV): Yes**; Penile Erection IV ([6]; IV): Yes**
CCCC[C@H](NC(C)=O)C(=O)N[C@H]1CC(=O)NCCCC[C@@H](C(=O)N(C)C)NC(=O)[C@H](Cc2cccc3ccccc23)NC(=O)[C@H](CCCNC(=N)N)NC(=O)[C@@H](Cc2ccccc2)NC(=O)[C@H](Cc2c[nH]cn2)NC1=O [Example 37, Ac-Nle-cyclo(-Asp-His-D-Phe-Arg-Nal 1-Lys)-N(CH3)2]	0.6 nM	92%	92%	82%	100%	5 nM	2.1 nM	–
CCCC[C@H](NC(C)=O)C(=O)N[C@H]1CC(=O)NCCCC[C@@H](C(=O)NCC)NC(=O)[C@H](Cc2cccc3ccccc23)NC(=O)[C@H](CCCNC(=N)N)NC(=O)[C@@H](Cc2ccccc2)NC(=O)[C@H](Cc2c[nH]c3ccccc23)NC1=O [Example 38, Ac-Nle-cyclo(-Asp-Trp-D-Phe-Arg-Nal 1-Lys)-NH—CH2—CH3] (Ac-[Nle]DW[dF]R[1Nal]K-NHEt; lactam 2-7)	10 nM	92%	92%	98%	100%	9 nM	–	–
